Values joined by “and” are separate entries in the source; they are usually repeats but may differ in a detail not shown here. Equal entries are not always repeated.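 Five concentrations, 48 hours, 96-well plates. GI50 marks 50% less growth. TGI marks complete inhibition of growth.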 Where a SMILES comes first, the peptide text is derived from it. The star is where a group is joined. Palmitoyl = CCCCCCCCCCCCCCCC(=O)*

From PubChem BioAssay (NCI) come the findings set out here.

Holding throughout (assay): NCI-60 cell line screen, 48 h
Assay [1] relates to CAKI-1 renal.
Assay [2] concerns ACHN renal.
Assay [3] concerns NCI-H226 lung.
The test system of assay [4] is IGROV1 ovarian.
For assay [5], the system named is NCI-H522 lung.
In assay [6] the test system is MDA-MB-231 breast.
The test system of assay [7] is M14 melanoma.
The subject of assay [8] is NCI-H23 lung.
The subject of assay [9] is SK-MEL-5 melanoma.
Assay [10] has as its system MDA-N.

As to `COc1ccc(CC2C(=O)NC(C)C(=O)N(C)C3Cc4ccc(cc4)Oc4cc(ccc4O)CC(C(=O)NC(C)C(=O)NC(C)C(=O)N2C)N(C)C3=O)cc1` (centres undefined), the GI50 in assay [1] was 0.497 µM and 0.647 µM and 0.0727 µM; in assay [2] it was 0.45 µM; in [3], 0.00929 µM; in [4], less than 0.0001 µM; in assay [5] it was less than 0.0001 µM; in [7], 0.0107 µM. Moreover, the results for the GI50 in [8] and in [9] were less than 0.0001 µM and 0.00102 µM, respectively. Besides, the TGI in assay [2] was 45 µM; in [3] it was 0.624 µM; in [4] it was 0.0203 µM; in assay [6] it was 0.0671 µM; in [7], 0.518 µM and 0.36 µM; in assay [8] it was 0.0293 µM and 0.0212 µM and 0.158 µM. Further, the TGI in assay [9] is 0.0532 µM and 0.127 µM and 0.0679 µM.

As for `CCOC(=O)C(Cc1c(-c2[nH]c3ccccc3c2CC(NC(=O)CNC(C)=O)C(=O)OCC)[nH]c2ccccc12)NC(=O)CNC(C)=O` (centres undefined), the TGI in [10] was greater than 100 µM; in assay [1], greater than 100 µM; in assay [4], greater than 100 µM; in [5] it was 88.8 µM; in [6], 40.6 µM; in assay [7] it was greater than 100 µM. Moreover, the TGI in assay [8] and in assay [9] was greater than 100 µM each time.

On to `CCN(CC)c1ccc(C(=C2C=CC(=[N+](CC)CC)C=C2)c2ccccc2)cc1`, for which the TGI in [1] stood at 0.504 µM; in assay [2], 0.145 µM; in [3], 0.0683 µM; in assay [4] it was 0.247 µM; in assay [5] it was 0.143 µM; in assay [7], 0.641 µM. For the same compound, the TGI in [8] stood at 0.0929 µM; in [9], 0.041 µM.

For the compound `CC1=CC(c2ccccc2)n2c(nc3cc4ccccc4cc32)N1` (centres undefined), the TGI in assay [10], in assay [1], in assay [2], in assay [3], in [4] and in [6] was greater than 100 µM throughout. For the same compound, the TGI in [7], in assay [8] and in assay [9] was greater than 100 µM throughout.

With `COc1cc([C@@H]2c3cc4c(cc3[C@@H](Nc3ccc(Cl)cc3C(=O)c3ccccc3Cl)[C@H]3COC(=O)[C@H]23)OCO4)cc(OC)c1OC`, the TGI is greater than 43.3 µM in assay [1]; 0.237 µM in assay [5]; greater than 100 µM in assay [6]; greater than 100 µM in assay [7]; greater than 53.8 µM in [8].

For `O=C(O)c1ccc(Nc2cnc3ccc(C(F)(F)F)cc3n2)cc1`, the TGI in assay [10] amounted to 37.3 µM; in assay [1], 30.9 µM; in [2] it was 32.6 µM; in [3], 29.4 µM; in assay [4] it was 28.5 µM; in assay [6], 36.9 µM. Besides, the TGI in assay [7] was greater than 100 µM; in assay [8] it was 33.5 µM; in assay [9] it was 32 µM.

Regarding `C/C=C\C(CC(=O)O)CC(=O)NCCC1CN(S(=O)(=O)C(F)(F)F)c2ccccc21` (centres undefined), the TGI in assay [10], in [1], in assay [2], in assay [4], in [5] and in assay [6] was greater than 100 µM each time. Also, the TGI in assay [7], in assay [8] and in [9] was greater than 100 µM throughout.

As to `CCCCCCCCCCCCCCCC(=O)NC(CCCCN)C(=O)NCC(=O)NC(Cc1ccccc1)C(=O)N1CCCC1C(=O)NC(CO)C(=O)NC(Cc1ccc(O)cc1)C(=O)NC(CCCCN)C(=O)NC(CC(C)C)C(=O)NC(CCCN=C(N)N)C(=O)N1CCCC1C(=O)NCC(N)=O` (centres undefined) (Palmitoyl-KGFPSYKLRPG-NH2; configuration not given here), the GI50 in assay [1] was 16.4 µM; in assay [3], 20.2 µM; in assay [4] it was 17.8 µM; in [5], 22.1 µM; in [6], 17.3 µM; in [7], 18.4 µM. The values for the GI50 in [8] and in assay [9] were 23.9 µM and 27.7 µM, respectively. Moreover, the TGI in assay [1] was 42.8 µM; in assay [3], 42.5 µM; in [4], 44.3 µM; in assay [5], 50.6 µM; in [6], 33.2 µM; in assay [7], 37.9 µM. Besides, the TGI in [8] was 55.6 µM; in assay [9] it was greater than 100 µM.

In the case of `COc1ccc(-c2c(C(C)=O)c(C)n(C3OC(CO)C(O)C(O)C3O)c(=S)c2C#N)cc1` (centres undefined), the TGI in [10], in assay [1], in assay [2], in assay [4], in [6] and in assay [7] was greater than 100 µM in each case. Moreover, the TGI in assay [8] and in [9] was greater than 100 µM each time.

As for `Cc1ccc(S(=O)(=O)NC(=O)NS(=O)(=O)O)cc1`, the TGI in assay [10], in assay [2], in assay [4], in [5], in assay [6] and in assay [7] was greater than 100 µM in each case. The TGI in [8] and in assay [9] was greater than 100 µM in each case.

`CN(C)CCn1c(=O)c2ccc(NCCNCCO)c3c(=O)c4cc(O)ccc4n(c1=O)c23`: the TGI in [10] was 7.49 µM; in assay [2], 8.64 µM; in [3] it was 5.71 µM; in [4], 7.47 µM; in assay [5], 3.58 µM; in assay [6], 3.37 µM. In addition, the figures for the TGI in [7], in assay [8] and in assay [9] were 13.6 µM, 3.64 µM and 5.22 µM, respectively.

With `COc1ccccc1OC/C(N=Cc1ccncc1)=N/NC(=O)c1ccncc1`, the TGI in assay [10], in [1], in assay [2], in [3], in assay [4] and in [5] was greater than 100 µM in each case. Besides, the TGI in assay [6], in assay [7] and in [8] was greater than 100 µM each time.

In the case of `NC(CO)c1ccccc1` (centres undefined), the TGI in [1], in assay [2], in assay [3], in assay [4], in [5] and in assay [7] was greater than 100 µM in each case. Moreover, the TGI in assay [9] is greater than 100 µM.

`C=C1C(=O)C[C@@]23CCC[C@@]12CC(O)C3` (some centres undefined): the TGI in assay [3] is 45.8 µM; in [4], 12.8 µM; in assay [5], 7.55 µM; in assay [8], 53.8 µM; in [9], greater than 39.5 µM.

As to `O=C(O)CCCc1nc2c(n1-c1ccccc1)C(=O)c1ccccc1C2=O`, the TGI in [10], in [1], in assay [2], in assay [4], in assay [5] and in [6] was greater than 100 µM each time. For the same compound, the TGI in assay [7] and in [8] was greater than 100 µM throughout.

In the case of `COC(=O)CNC(=O)/C=C/[C@H](O[Si](C)(C)C(C)(C)C)[C@H](/C=C/C(=O)NCC(=O)OC)O[Si](C)(C)C(C)(C)C`, the TGI in assay [10], in assay [1], in assay [2], in assay [3], in assay [4] and in assay [5] was greater than 25 µM each time. The TGI in assay [6], in assay [8] and in assay [9] was greater than 25 µM each time.

On to `C/C(=N\O)c1ccc(Nc2c3ccccc3nc3occc23)cc1`, for which the TGI in assay [10] is greater than 50 µM; in [2] it was greater than 50 µM; in assay [3] it was greater than 25.9 µM; in assay [4], 8.59 µM; in [5] it was 0.287 µM; in [6], greater than 39.3 µM. Moreover, the TGI in [7] was 3.5 µM; in assay [8], greater than 10.8 µM; in assay [9], 6.77 µM.

With `CSc1s[s+]c(SC)c1-c1ccccc1`, the TGI in assay [10] was 32.7 µM; in assay [1], 36.4 µM; in assay [2], 32.8 µM; in assay [4] it was greater than 100 µM; in [5], 27.9 µM; in assay [6], 31.2 µM. Also, the TGI in [7] is 30.8 µM; in assay [8], 34.7 µM; in [9], 29.3 µM.

In the case of `COC(=O)c1ccc(OCc2ccc3nc(-c4ccccc4)c(Cl)nc3c2)cc1`, the TGI is greater than 100 µM in assay [10]; 69.9 µM in [1]; greater than 100 µM in [2]; greater than 100 µM in assay [4]; 45.7 µM in assay [5]; 60.2 µM in assay [6]. The TGI in assay [7], in [8] and in assay [9] was greater than 100 µM each time.

As for `COc1ccc(NC(=O)C2=C(SC)C(=O)N=C2N)cc1`, the TGI in assay [1], in [2], in assay [3], in [4], in [6] and in assay [8] was greater than 100 µM in each case. The compound further registered a TGI in assay [9] greater than 100 µM.

For `O=C1O/C(=C\c2ccc(O)cc2)C(c2ccc(O)c(Cl)c2)=C1Br`, the TGI is greater than 100 µM in assay [10]; 49.3 µM in assay [1]; 30 µM in assay [2]; 25.7 µM in assay [4]; 20.5 µM in assay [5]; 59.9 µM in assay [6]. Also, the TGI in [7] is 26.4 µM; in assay [8], 59.2 µM; in [9], 25.9 µM.

Take `COC(=O)CCc1ccc2c(c1)CC1(C2)Cc2ccc(CCC(=O)OC)cc2C1`: the TGI in [10], in assay [2], in assay [3], in assay [4], in [5] and in assay [6] was greater than 100 µM throughout. The TGI was greater than 100 µM in [7], greater than 100 µM in [8] and 57.7 µM in assay [9].

`Cc1ccc(C2=Nn3c(nc4sc(-c5ccccc5)cc4c3=O)SC2)cc1`: the TGI in assay [10], in [1], in [2], in assay [3], in [4] and in [5] was greater than 100 µM throughout. The TGI in assay [6], in assay [8] and in assay [9] was greater than 100 µM each time.

Take `CSc1nc2c(ncn2C2OCC(O)C(O)C2O)c(=O)[nH]1` (centres undefined): the TGI in assay [3], in [4], in assay [5], in assay [8] and in assay [9] was greater than 100 µM in each case.

In the case of `COC(=O)c1cc2c3c(c(C(C)=O)c(OC)c2[nH]1)NCC3`, the TGI in [10], in assay [1], in assay [2], in [3], in assay [4] and in assay [6] was greater than 50 µM throughout. Also, the TGI in assay [7], in [8] and in [9] was greater than 50 µM each time.

For `COc1cccc(N2N=C3c4ccccc4-n4c(nc5ccccc54)C3C2N)c1` (centres undefined), the TGI in assay [10], in assay [1], in assay [2], in assay [4], in assay [5] and in assay [6] was greater than 100 µM each time. For the same compound, the TGI in [7], in assay [8] and in assay [9] was greater than 100 µM in each case.

`BrCC[P+](c1ccccc1)(c1ccccc1)c1ccccc1`: the TGI was 7.59 µM in [10]; 25.2 µM in assay [1]; greater than 100 µM in assay [2]; 29.1 µM in assay [4]; 34.8 µM in assay [6]; 18 µM in [7]. Moreover, the TGI in assay [9] was 26.3 µM.

`COC1=CC2(C=CC1=O)CCN=c1c(O)c3c(c(O)c12)=NC=N3` (centres undefined): the TGI in assay [10], in assay [1], in [2], in [4], in assay [5] and in assay [6] was greater than 100 µM each time. In addition, the TGI in [7], in [8] and in assay [9] was greater than 100 µM each time.

Take `CC(=O)c1c(O)c(C)c(O)c2c1OC1=CC(=O)C(C(C)=O)C(=O)C12C` (centres undefined): the GI50 in assay [1] was 29.5 µM and 10.5 µM; in [3] it was 6.93 µM and 18.3 µM; in assay [4] it was 5.63 µM and 17.9 µM; in assay [5], 4.15 µM and 19.3 µM; in assay [8], 6.72 µM and 18.7 µM; in assay [9], 3.56 µM and 16.5 µM. In addition, the TGI in [1] was 79.8 µM and 26.8 µM; in [3], 20.6 µM and 60.2 µM; in assay [4], 38.5 µM and 75.4 µM; in assay [5], 15.2 µM and 56.6 µM; in assay [8], 26.6 µM and 49.6 µM; in assay [9], 9.29 µM and 33.8 µM.
